Source: patent US10005767B2, “Compositions and methods for inhibition of the JAK pathway” (Rigel Pharmaceuticals, Inc., priority 2009, dated 2018)
Counter-ions that a name gives are not always drawn. Like-named read-outs stand apart in the source and are kept apart here.

Tested on: human primary T-cells, IL-2 stimulated proliferation (JAK-1 and JAK-3 dependent; reported as JAK3 activity)
Assay: Human primary T-cell proliferation stimulated by IL-2 (Example 3)
Format: cell-based
Conditions: tested under conditions described in Example 3 (IL-2 stimulated human primary T-cell proliferation), read-out: ability to inhibit JAK3 activity, IC50 range (Table V)
Outline: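 Peripheral-blood human T-cells pre-activated via TCR/CD28, IL-2-starved overnight, then cultured 72 h at 37 °C with compound in Yssel's medium containing IL-2 (80 U/mL in cell suspension). Proliferation read as viable-cell ATP by CellTiter-Glo luminescence; reduction versus control taken as JAK pathway inhibition.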

| SMILES | IC50 (Homo sapiens, T-cell) [nM] | IC50 [nM] |
| --- | --- | --- |
| Cc1cnc(Nc2cccc(C(C)N3CCC3)c2)nc1Nc1ccc2oc(=O)[nH]c2c1 (stereo not drawn) [Compound I-211, 5-(2-(3-(1-(azetidin-1-yl)ethyl)phenylamino)-5-methylpyrimidin-4-ylamino)benzo[d]oxazol-2(3H)-one] | < 500 | – |
| COc1cc(Nc2ncc(C)c(Nc3ccc4oc(=O)[nH]c4c3)n2)cc(C(=O)N2CCN(C)CC2)c1 [Compound I-255, 5-(2-(3-methoxy-5-(4-methylpiperazine-1-carbonyl)phenylamino)-5-methylpyrimidin-4-ylamino)benzo[d]oxazol-2(3H)-one] | < 500 | – |
| Cc1cnc(Nc2ccc(NC3CC4CCC(C3)N4C)cc2)nc1Nc1ccc2oc(=O)[nH]c2c1 (stereo not drawn) [Compound I-121, N4-(benzo[d]oxazol-2(3H)-on-5-yl)-N2-(4-(8-methyl-8-azabicyclo[3.2.1]octan-3-ylamino)phenyl)-5-methylpyrimidine-2,4-diamine] | 500 to 5000 | – |
| CC(=O)N1Cc2ccc(Nc3ncc(C)c(Nc4ccc5oc(=O)[nH]c5c4)n3)cc2C1 [III-12, 5-[2-(2-Acetyl-2,3-dihydro-1H-isoindol-5-ylamino)-5-methyl-pyrimidin-4-ylamino]-3H-benzooxazol-2-one] | < 500 | – |
| Cc1cnc(Nc2ccc(C(=O)N3CCN(CC4CC4)CC3)nc2)nc1Nc1ccc2oc(=O)[nH]c2c1 [II-46, 5-{2-[6-(4-Cyclopropylmethyl-piperazine-1-carbonyl)-pyridin-3-ylamino]-5-methyl-pyrimidin-4-ylamino}-3H-benzooxazol-2-one] | 500 to 5000 | – |
| Cc1cnc(Nc2cnc(N3CCN4CCC[C@@H]4C3)c(F)c2)nc1Nc1ccc2oc(=O)[nH]c2c1 [II-113, N4-(benzo[d]oxazolin-2(3H)-one-5-yl)-N2-{2-[(8R)-1,4-diazabicyclo[4.3.0]nonane-1-yl]-3-fluoropyridine-5-yl}-5-methyl-2,4-pyrimidinediamine] | – | < 500 |
| Cc1cnc(Nc2ccc(N3C[C@@H](C)N(C)C[C@@H]3C)nc2)nc1Nc1ccc2oc(=O)[nH]c2c1 (relative stereo) [II-129, 5-methyl-N4-(2-oxo-2,3-dihydro-1,3-benzoxazol-5-yl)-N2-[2-(trans-2,4,5-trimethylpiperazino)pyridin-5-yl]-2,4-pyrimidinediamine] | < 500 | – |
| Cc1cnc(Nc2ccc(C(=O)O)c(C(F)(F)F)c2)nc1Nc1ccc2oc(=O)[nH]c2c1 [Compound I-222, 4-(5-methyl-4-(2-oxo-2,3-dihydrobenzo[d]oxazol-5-ylamino)pyrimidin-2-ylamino)-2-(trifluoromethyl)benzoic acid] | 500 to 5000 | – |
| CCN1CCN(c2ncc(Nc3ncc(C)c(Nc4ccc5oc(=O)[nH]c5c4)n3)cc2C(F)(F)F)CC1 [II-110, N4-(benzo[d]oxazolin-2(3H)-one-5-yl)-N2-[2-(4-ethylpiperazin-1-yl)-3-trifluoromethylpyridine-5-yl]-5-methyl-2,4-pyrimidinediamine] | < 500 | – |
| COc1ccc(Nc2ncc(C)c(Nc3ccc4oc(=O)[nH]c4c3)n2)cc1 [Compound I-272, 5-(2-(4-methoxyphenylamino)-5-methylpyrimidin-4-ylamino)benzo[d]oxazol-2(3H)-one] | < 500 | – |
| COc1cc(Nc2ncc(C)c(Nc3ccc4oc(=O)[nH]c4c3)n2)cc(OC)c1OC [Compound I-119, N4-(benzo[d]oxazol-2(3H)-on-5-yl)-N2-(3,4,5-trimethoxy)phenyl-5-methylpyrimidine-2,4-diamine] | – | < 500 |
| Cc1ccc(Nc2ncc(C)c(Nc3ccc4oc(=O)[nH]c4c3)n2)cc1OC(C)(C)C#N [Compound I-397, N2-[3-(1-cyano-1-methyl)ethoxy-4-methyl]phenyl-5-methyl-N4-(2-oxo-2,3-dihydro-1,3-benzoxazol-5-yl)-2,4-pyrimidinediamine] | – | < 500 |
| CNC(C)c1cc(Nc2ncc(C)c(Nc3ccc4oc(=O)[nH]c4c3)n2)cc(C(F)(F)F)c1 (stereo not drawn) [Compound I-457, 5-(5-methyl-2-(3-(1-(methylamino)ethyl)-5-(trifluoromethyl)phenylamino)pyrimidin-4-ylamino)benzo[d]oxazol-2(3H)-one] | < 500 | – |
| Cc1cnc(Nc2cc(C(C)NC3CCC3)cc(C(F)(F)F)c2)nc1Nc1ccc2oc(=O)[nH]c2c1 (stereo not drawn) [Compound I-465, 5-(2-(3-(1-(cyclobutylamino)ethyl)-5-(trifluoromethyl)phenylamino)-5-methylpyrimidin-4-ylamino)benzo[d]oxazol-2(3H)-one] | < 500 | – |
| Cc1cnc(Nc2ccc(N3CCCC3)nc2)nc1Nc1ccc2oc(=O)[nH]c2c1 [II-71, 5-(5-methyl-2-(6-(pyrrolidin-1-yl)pyridin-3-ylamino)pyrimidin-4-ylamino)benzo[d]oxazol-2(3H)-one] | < 500 | – |
| Cc1cnc(Nc2cccc(Br)c2)nc1Nc1ccc2oc(=O)[nH]c2c1 [Compound I-175, 5-[2-(3-Bromo-phenylamino)-5-methyl-pyrimidin-4-ylamino]-3H-benzooxazol-2-one] | < 500 | – |
| Cc1cnc(Nc2ccc(OC(F)F)c(C(F)F)c2)nc1Nc1ccc2oc(=O)[nH]c2c1 [Compound I-442, 5-(2-(4-(difluoromethoxy)-3-(difluoromethyl)phenylamino)-5-methylpyrimidin-4-ylamino)benzo[d]oxazol-2(3H)-one formate salt] | < 500 | – |
| COc1cncc(Nc2ncc(C)c(Nc3ccc4oc(=O)[nH]c4c3)n2)c1 [II-152, N2-(5-methoxypyridin-3-yl)-5-methyl-N4-(2-oxo-2,3-dihydro-1,3-benzoxazol-5-yl)-2,4-pyrimidinediamine] | > 10000 | – |
| Cc1cnc(Nc2ccc(N(C)[C@H]3CCCN(Cc4ccccc4)C3)nc2)nc1Nc1ccc2oc(=O)[nH]c2c1 [II-100, (S)-5-(2-(6-((1-benzylpiperidin-3-yl)(methyl)amino)pyridin-3-ylamino)-5-methylpyrimidin-4-ylamino)benzo[d]oxazol-2(3H)-one] | – | < 500 |
| Cc1cnc(Nc2ccc(F)c(C#N)c2)nc1Nc1ccc2oc(=O)[nH]c2c1 [Compound I-294, N2-(3-cyano-4-fluoro)phenyl-5-methyl-N4-(2-oxo-2,3-dihydro-1,3-benzoxazol-5-yl)-2,4-pyrimidinediamine] | – | < 500 |
| Cc1cnc(Nc2cnc(N3C[C@@H]4C[C@H]3CN4C)c(C)c2)nc1Nc1ccc2oc(=O)[nH]c2c1 [II-28, N4-(benzoxazolin-2-on-5-yl)-N2-[3-methyl-2-((1S,4S)-5-methyl-2,5-diazabicyclo[2.2.1]heptan-2-yl)pyridin-5-yl]-5-methylpyrimidine-2,4-diamine] | < 500 | – |
| Cc1cnc(Nc2ccc(F)c(NS(C)(=O)=O)c2)nc1Nc1ccc2oc(=O)n(C)c2c1 [Compound I-88, N2-((4-fluoro-3-methylsulfonylamino)phenyl)-N4-(3-methyl-2-oxo-2,3-dihydrobenzo[d]oxazol-5-yl)-5-methylpyrimidine-2,4-diamine] | – | < 500 |
| CCOc1cc(Nc2ncc(C)c(Nc3ccc4oc(=O)[nH]c4c3)n2)ccc1OC(F)F [Compound I-313, N2-(4-difluoromethoxy-3-ethoxy)phenyl-5-methyl-N4-(2-oxo-2,3-dihydro-1,3-benzoxazol-5-yl)-2,4-pyrimidinediamine] | – | < 500 |
| Cc1cnc(Nc2ccc(N3CCOCC3)nc2)nc1Nc1cc(F)c2oc(=O)[nH]c2c1 [II-76, 7-fluoro-5-(5-methyl-2-(6-morpholinopyridin-3-ylamino)pyrimidin-4-ylamino)benzo[d]oxazol-2(3H)-one] | < 500 | – |
